Assay: Lipophilicity, logD of the compound in octanol and water at pH 7.4 by shake-flask method
Format: physicochemical

logD	Compound
4	O=C1NCc2c(-c3cnc4[nH]cc(Cc5ccccc5)c4c3)c[nH]c21
2.4	Fc1cccc(Cc2c[nH]c3ncc(-c4cnn(C5CCNCC5)c4)cc23)c1
2.31	c1ccc(Cc2c[nH]c3ncc(-c4cnn(C5CCNCC5)c4)cc23)cc1
2.4	Fc1ccc(Cc2c[nH]c3ncc(-c4cnn(C5CCNCC5)c4)cc23)cc1
2.5	Fc1ccccc1Cc1c[nH]c2ncc(-c3cnn(C4CCNCC4)c3)cc12
